# Test results taken from ChEMBL document CHEMBL4316596, “Antimicrobial Peptides with High Proteolytic Resistance for Combating Gram-Negative Bacteria” (J Med Chem, 2019).
# Calls of active or inactive are those of the source. The calls are words filed in the database; no cut-off is given here.
# Columns and labels:
# Escherichia coli [1] = assay: Antimicrobial activity against Escherichia coli K88 after 24 hrs by NCCLS-protocol based assay; type: functional; settings: K88, 24 h
# Escherichia coli [2] = assay: Antimicrobial activity against Escherichia coli K99 after 24 hrs by NCCLS-protocol based assay; type: functional; settings: K99, 24 h
# Pseudomonas aeruginosa [3] = assay: Antimicrobial activity against Pseudomonas aeruginosa CICC 21630 clinical isolates after 24 hrs by NCCLS-protocol based assay; type: functional; settings: CICC 21630, 24 h
# Pseudomonas aeruginosa [4] = assay: Antimicrobial activity against Pseudomonas aeruginosa 26305 clinical isolates after 24 hrs by NCCLS-protocol based assay; type: functional; settings: Pseudomonas aeruginosa, 26305, 24 h
# Pseudomonas aeruginosa [5] = assay: Antimicrobial activity against Pseudomonas aeruginosa 25349 clinical isolates after 24 hrs by NCCLS-protocol based assay; type: functional; settings: Pseudomonas aeruginosa, 25349, 24 h
# Salmonella typhimurium [6] = assay: Antimicrobial activity against Salmonella typhimurium ATCC 14028 after 24 hrs by NCCLS-protocol based assay; type: functional, Salmonella enterica subsp. enterica serovar Typhimurium; settings: Salmonella enterica, ATCC 14028, 24 h
# Salmonella typhimurium [7] = assay: Antimicrobial activity against Salmonella typhimurium C7731 after 24 hrs by NCCLS-protocol based assay; type: functional, Salmonella enterica subsp. enterica serovar Typhimurium; settings: Salmonella enterica, C7731, 24 h
# Acinetobacter baumannii = assay: Antimicrobial activity against Acinetobacter baumannii after 24 hrs by NCCLS-protocol based assay; type: functional
# Erythrocyte = assay: Hemolytic activity against human RBC after 1 hr; type: ADME, cell-based
# Escherichia coli [8] = assay: Bactericidal activity against Escherichia coli ATCC 25922 incubated for 4 hrs followed by culture spread on agar plates and cultured overnight; type: functional; settings: ATCC 25922, 4 h, read-out: MBC>99.9
# [9] = Selectivity ratio of IC50 for mouse RAW264.7 cells to geometric mean of the peptide MBC for bacteria
# [10] = Selectivity ratio of IC50 for pig IPECJ2 cells to geometric mean of the peptide MBC for bacteria
# Escherichia coli [11] = assay: Bactericidal activity against Escherichia coli ATCC 25922 incubated for 4 hrs followed by culture spread on agar plates and cultured overnight in presence of CaCl2; type: functional; settings: ATCC 25922, 4 h, read-out: MBC>99.9
# Escherichia coli [12] = assay: Bactericidal activity against Escherichia coli ATCC 25922 incubated for 4 hrs followed by culture spread on agar plates and cultured overnight in presence of FeCl3; type: functional; settings: ATCC 25922, 4 h, read-out: MBC>99.9
# Escherichia coli [13] = assay: Bactericidal activity against Escherichia coli ATCC 25922 incubated for 4 hrs followed by culture spread on agar plates and cultured overnight in presence of NH4Cl; type: functional; settings: ATCC 25922, 4 h, read-out: MBC>99.9
# Escherichia coli [14] = assay: Bactericidal activity against Escherichia coli ATCC 25922 incubated for 4 hrs followed by culture spread on agar plates and cultured overnight in presence of MgCl2; type: functional; settings: ATCC 25922, 4 h, read-out: MBC>99.9
# Escherichia coli [15] = assay: Bactericidal activity against Escherichia coli ATCC 25922 incubated for 4 hrs followed by culture spread on agar plates and cultured overnight in presence of 1 mg/ml trypsin; type: functional; settings: ATCC 25922, 4 h, read-out: MBC>99.9
# Escherichia coli [16] = assay: Bactericidal activity against Escherichia coli ATCC 25922 incubated for 4 hrs followed by culture spread on agar plates and cultured overnight in presence of 0.5 mg/ml trypsin; type: functional; settings: ATCC 25922, 4 h, read-out: MBC>99.9
# Escherichia coli [17] = assay: Bactericidal activity against Escherichia coli ATCC 25922 incubated for 4 hrs followed by culture spread on agar plates and cultured overnight in presence of 0.25 mg/ml chymotrypsin; type: functional; settings: ATCC 25922, 4 h, read-out: MBC>99.9
# Escherichia coli [18] = assay: Bactericidal activity against Escherichia coli ATCC 25922 incubated for 4 hrs followed by culture spread on agar plates and cultured overnight in presence of 0.125 mg/ml chymotrypsin; type: functional; settings: ATCC 25922, 4 h, read-out: MBC>99.9
# Escherichia coli [19] = assay: Induction of outer membrane permeabilization in Escherichia coli ATCC 25922 at 1 uM by NPN-dye based assay relative to control
# Escherichia coli [20] = assay: Induction of cytoplasmic membrane depolarization in Escherichia coli ATCC 25922 at 2 uM up to 5000 secs by DiSC3-5 dye-based fluorescence spectrophotometric method; type: functional, organism-based
# Escherichia coli [21] = assay: Bactericidal activity against Escherichia coli UB1005 incubated for 4 hrs followed by culture spread on agar plates and cultured overnight; type: functional; settings: UB1005, 4 h, read-out: MBC>99.9
# Escherichia coli [22] = assay: Bactericidal activity against Escherichia coli K88 incubated for 4 hrs followed by culture spread on agar plates and cultured overnight; type: functional; settings: K88, 4 h, read-out: MBC>99.9
# Escherichia coli [23] = assay: Bactericidal activity against Escherichia coli K99 incubated for 4 hrs followed by culture spread on agar plates and cultured overnight; type: functional; settings: K99, 4 h, read-out: MBC>99.9
# Pseudomonas aeruginosa [24] = assay: Bactericidal activity against Pseudomonas aeruginosa PAO1 incubated for 4 hrs followed by culture spread on agar plates and cultured overnight; type: functional; settings: PAO1, 4 h, read-out: MBC>99.9
# Pseudomonas aeruginosa [25] = assay: Bactericidal activity against Pseudomonas aeruginosa CICC 21630 clinical isolates incubated for 4 hrs followed by culture spread on agar plates and cultured overnight; type: functional; settings: CICC 21630, 4 h, read-out: MBC>99.9
# Salmonella typhimurium [26] = assay: Bactericidal activity against Salmonella typhimurium C7731 incubated for 4 hrs followed by culture spread on agar plates and cultured overnight; type: functional, Salmonella enterica subsp. enterica serovar Typhimurium; settings: Salmonella enterica, C7731, 4 h; read-out: MBC>99.9
# Klebsiella pneumoniae = assay: Bactericidal activity against Klebsiella pneumoniae incubated for 4 hrs followed by culture spread on agar plates and cultured overnight; type: functional; settings: read-out: MBC>99.9
# Escherichia coli [27] = assay: Induction of cytoplasmic membrane depolarization in Escherichia coli ATCC 25922 assessed as induction cytoplasmic ONPG release at 2 to 16 uM up to 120 mins by DiSC3-5 dye-based fluorescence spectrophotometric method; type: functional, organism-based
# Escherichia coli [28] = assay: Antibacterial activity against Escherichia coli ATCC 25922 infected in ICR mouse assessed as log reduction in bacterial cells in spleen at 5 mg/kg, ip administered at 5 mg/kg, ip dosed at 0.5, 2, 4 and 8 hrs post-infection; type: functional
# Escherichia coli [29] = assay: Antibacterial activity against Escherichia coli ATCC 25922 infected in ICR mouse assessed as log reduction in bacterial cells in liver at 5 mg/kg, ip administered at 5 mg/kg, ip dosed at 0.5, 2, 4 and 8 hrs post-infection; type: functional
# Escherichia coli [30] = assay: Bactericidal activity against Escherichia coli ATCC 25922 incubated for 4 hrs followed by culture spread on agar plates and cultured overnight in presence of 4 mg/ml pepsin; type: functional, organism-based
# Chymotrypsin [31] = molecular target: T1, Chymotrypsin (Homo sapiens, UniProt Q99895+P17538+P40313+Q6GPI1); assay: Stability of the compound assessed as chymotrypsin (unknown origin)-mediated compound hydrolysis after 4 hrs by SDS-PAGE analysis; type: ADME, protein assay
# [32] = Stability of the compound assessed as pepsin (unknown origin)-mediated compound hydrolysis after 8 hrs by SDS-PAGE analysis; type: ADME; settings: human
# Chymotrypsin [33] = molecular target: T1, Chymotrypsin; assay: Stability of the compound assessed as chymotrypsin (unknown origin)-mediated compound hydrolysis by measuring compound helicity by CD spectroscopy; type: ADME, protein assay
# [34] = Stability of the compound assessed as pepsin (unknown origin)-mediated compound hydrolysis by measuring compound helicity by CD spectroscopy; type: ADME; settings: human
# [35] = Hemolytic activity against human RBC at 1 to 128 uM after 1 hr; type: ADME, cell-based, Erythrocyte; settings: red blood cells (erythrocytes), read-out: Activity
# Chymotrypsin [36] = molecular target: T1, Chymotrypsin; assay: Stability of the compound assessed as chymotrypsin (unknown origin)-mediated compound hydrolysis after 8 hrs by SDS-PAGE analysis; type: ADME, protein assay
# [37] = Stability of the compound assessed as Tritirachium album proteinase K-mediated compound hydrolysis by measuring compound helicity by CD spectroscopy; type: ADME; settings: parengyodontium album
Compound,MIC95 (Escherichia coli [1]),MIC95 (Escherichia coli [2]),MIC95 (Pseudomonas aeruginosa [3]),MIC95 (Pseudomonas aeruginosa [4]),MIC95 (Pseudomonas aeruginosa [5]),MIC95 (Salmonella typhimurium [6]),MIC95 (Salmonella typhimurium [7]),MIC95 (Acinetobacter baumannii),HC10 (Erythrocyte),MBC (Escherichia coli [8]),Ratio [9],Ratio [10],MBC (Escherichia coli [11]),MBC (Escherichia coli [12]),MBC (Escherichia coli [13]),MBC (Escherichia coli [14]),MBC (Escherichia coli [15]),MBC (Escherichia coli [16]),MBC (Escherichia coli [17]),MBC (Escherichia coli [18]),also measured
CC[C@H](C)[C@H](NC(=O)CN)C(=O)NCC(=O)N[C@@H](C)C(=O)N[C@H](C(=O)N[C@@H](CC(C)C)C(=O)N[C@@H](CCCCN)C(=O)N[C@H](C(=O)N[C@@H](CC(C)C)C(=O)N[C@H](C(=O)N[C@H](C(=O)NCC(=O)N[C@@H](CC(C)C)C(=O)N1CCC[C@H]1C(=O)N[C@@H](C)C(=O)N[C@@H](CC(C)C)C(=O)N[C@H](C(=O)N[C@@H](CO)C(=O)N[C@@H](Cc1c[nH]c2ccccc12)C(=O)N[C@H](C(=O)N[C@@H](CCCCN)C(=O)N[C@@H](CCCNC(=N)N)C(=O)N[C@@H](CCCCN)C(=O)N[C@@H](CCCNC(=N)N)C(=O)N[C@@H](CCC(N)=O)C(=O)N[C@@H](CCC(N)=O)C(N)=O)[C@@H](C)CC)[C@@H](C)CC)[C@@H](C)O)[C@@H](C)O)C(C)C)C(C)C [MELITTIN],1 µM,2 µM,4 µM,2 µM,2 µM,1 µM,1 µM,1 µM,2 µM,2 µM,0.96,1.31,8 µM,2 µM,2 µM,4 µM,16 µM,4 µM,4 µM,2 µM,Activity (Escherichia coli [19]): Active; Activity (Escherichia coli [20]): Active; MBC (Escherichia coli [21]): 2 µM; MBC (Escherichia coli [22]): 1 µM; MBC (Escherichia coli [23]): 2 µM; MBC (Pseudomonas aeruginosa [24]): 2 µM; MBC (Pseudomonas aeruginosa [25]): 4 µM; MBC (Salmonella typhimurium [26]): 2 µM; MBC (Klebsiella pneumoniae): 2 µM; Activity (Escherichia coli [27]): Active
H-LRPLLRPLLRPLLRPLLRPLLRPLLRPL-NH2,1 µM,1 µM,2 µM,2 µM,4 µM,1 µM,2 µM,1 µM,64 µM,2 µM,0.89,4.11,16 µM,2 µM,2 µM,2 µM,2 µM,2 µM,2 µM,2 µM,log(activity) (Escherichia coli [28]): 1; log(activity) (Escherichia coli [29]): 1; Activity (Escherichia coli [30]): inactive; MBC (Escherichia coli [21]): 2 µM; MBC (Escherichia coli [22]): 1 µM; MBC (Escherichia coli [23]): 2 µM; MBC (Pseudomonas aeruginosa [24]): 2 µM; MBC (Pseudomonas aeruginosa [25]): 4 µM; MBC (Salmonella typhimurium [26]): 2 µM; MBC (Klebsiella pneumoniae): 4 µM; Stability (Chymotrypsin [31]): Unstable; Stability [32]: Unstable; Stability (Chymotrypsin [33]): Unstable; Stability [34]: Unstable
H-IKPIIKPIIKPIIKPIIKPIIKPIIKPI-NH2,2 µM,2 µM,> 64 µM,> 64 µM,> 64 µM,64 µM,64 µM,2 µM,> 128 µM,16 µM,75.44,9.46,> 128 µM,64 µM,16 µM,64 µM,16 µM,16 µM,16 µM,16 µM,"Activity (Escherichia coli [30]): inactive; MBC (Escherichia coli [21]): 4 µM; MBC (Escherichia coli [22]): 2 µM; MBC (Escherichia coli [23]): 4 µM; MBC (Pseudomonas aeruginosa [24]): > 64 µM; MBC (Pseudomonas aeruginosa [25]): > 64 µM; MBC (Salmonella typhimurium [26]): > 64 µM; MBC (Klebsiella pneumoniae): 64 µM; hemolysis at 1 h, up to 128 µM [35]: < 5%; Stability (Chymotrypsin [36]): Stable; Stability [32]: Unstable; Stability [37]: Unstable"
H-LKPLLKPLLKPLLKPLLKPLLKPLLKPL-NH2,0.5 µM,1 µM,2 µM,4 µM,8 µM,1 µM,2 µM,1 µM,> 128 µM,1 µM,0.58,9.01,> 128 µM,2 µM,1 µM,2 µM,1 µM,1 µM,1 µM,1 µM,log(activity) (Escherichia coli [28]): 1; log(activity) (Escherichia coli [29]): 1; Activity (Escherichia coli [30]): inactive; MBC (Escherichia coli [21]): 2 µM; MBC (Escherichia coli [22]): 1 µM; MBC (Escherichia coli [23]): 2 µM; MBC (Pseudomonas aeruginosa [24]): 1 µM; MBC (Pseudomonas aeruginosa [25]): 8 µM; MBC (Salmonella typhimurium [26]): 2 µM; MBC (Klebsiella pneumoniae): 2 µM; Stability (Chymotrypsin [31]): Unstable; Stability [32]: Unstable; Stability (Chymotrypsin [33]): Unstable; Stability [34]: Unstable
H-IRPIIRPIIRPIIRPIIRPIIRPIIRPI-NH2,1 µM,1 µM,32 µM,32 µM,32 µM,2 µM,1 µM,1 µM,> 128 µM,2 µM,1136.22,25.25,> 128 µM,2 µM,2 µM,2 µM,2 µM,2 µM,2 µM,2 µM,"log(activity) (Escherichia coli [28]): 1.6; log(activity) (Escherichia coli [29]): 2; Activity (Escherichia coli [30]): Active; Activity (Escherichia coli [19]): >50%; Activity (Escherichia coli [20]): Active; MBC (Escherichia coli [21]): 2 µM; MBC (Escherichia coli [22]): 1 µM; MBC (Escherichia coli [23]): 2 µM; MBC (Pseudomonas aeruginosa [24]): 8 µM; MBC (Pseudomonas aeruginosa [25]): 32 µM; MBC (Salmonella typhimurium [26]): 2 µM; MBC (Klebsiella pneumoniae): 4 µM; hemolysis at 1 h, up to 128 µM [35]: < 5%; Stability (Chymotrypsin [36]): Stable; Stability [32]: Stable; Stability [37]: Unstable; Activity (Escherichia coli [27]): Active"
